Values of other authors, collected in article PMC5531494, “Target specificity, in vivo pharmacokinetics, and efficacy of the putative STAT3 inhibitor LY5 in osteosarcoma, Ewing's sarcoma, and rhabdomyosarcoma” (PLoS ONE, 2017).

Conditions: earlier work of the authors; cited from earlier work

## NS(=O)(=O)c1cccc2c1C(=O)c1cccc(O)c1C2=O [LLL12]
  oral bioavailability: poor oral bioavailability
